# Data from article PMC7381729, “A new class of PentixaFor- and PentixaTher-based theranostic agents with enhanced CXCR4-targeting efficiency” (Theranostics, 2020).
# Read-outs that look alike come from different tables or passages of the source. Where a SMILES comes first, the peptide text is derived from it. Side-chain parts run from the residue outwards. [ ]: non-standard residue; d: D form. The star is where a group is joined. DOTA = O=C(O)CN1CCN(CC(=O)O)CCN(CC(=O)*)CCN(CC(=O)O)CC1; 2Nal = N[C@@H](Cc1ccc2ccccc2c1)C(=O)O; dNMeOrn = CN[C@H](CCCN)C(=O)O; 4Amb = NCc1ccc(C(=O)O)cc1; 4Abz = Nc1ccc(C(=O)O)cc1
# Experiments:
# [1] = tested on: Daudi xenograft bearing CB17 SCID mice; test: Small animal PET imaging in Daudi xenograft bearing mice; type: in vivo; settings: mouse, in vivo
# Description: (§1) Small aminal PET imaging studies were performed using a Siemens Inveon PET scanner. Animals were anesthetized with isoflurane and injected via the tail vein with 10 to 15 MBq (0.1 nmol) of the respective tracer. Dynamic imaging (n=1 per compound) was performed after on-bed injection for 1.5 h, and static images (n=1 per compound) were acquired at 1 h p.i. with an acquisition time of 15 min. Data analysis was performed using the Inveon Research Workplace software. Images were reconstructed using a 3D ordered-subsets expectation maximum (OSEM3D) algorithm without scanner and attenuation correction. Time-activity curves (Figure 4) were obtained by generating isocontour regions of interest (ROI) for the tumor and the heart content (as a surrogate for blood activity), as well as by defining two spherical ROIs (each 23.4 mm^3) in the thigh area (muscle) and areas of homogenous tracer uptake in the liver, followed by plotting of average activity ± SD per volume in these ROIs over time.  Figure 4 Results from small animal PET imaging using [^68Ga]PentixaFor (top row), [^68Ga]DOTA-r-a-ABA-CPCR4 (middle row) and [^68Ga]DOTA-r-a-ABA-iodoCPCR4 (bottom row) in Daudi xenograft bearing CB17 SCID mice. Images on the left (MIP) were obtained by static imaging (1h p.i., n=1), the time activity curves (TAC) on the right were acquired by dynamic PET imaging (0-90 min p.i., n=1).
# [2] = as above; type: in vivo; settings: CB17 SCID, mouse, iv, total radioactivity, 90 min p.i., dynamic PET, ROI analysis, n=1 per compound
# Description: as §1
# [3] = tested on: Daudi (human B-cell lymphoma) xenograft bearing CB-17 SCID mice; test: Biodistribution in Daudi xenograft bearing mice; type: in vivo, mouse
# Outline: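 Female CB-17 SCID mice with Daudi xenografts (n=4-5) received 5-10 MBq (0.08-0.11 nmol) ^68Ga- or ^177Lu-labelled ligand i.v.; blocking by coinjected 50 µg AMD3100. Organs counted by γ-counter at 1, 6 and 48 h p.i.; %ID/g (mean ± SD).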
# [4] = In vivo metabolite analysis (radio-HPLC); design: species or system mouse; settings: CB17 SCID mice, 0.5h p.i., i.v. app. 35 MBq; radio-HPLC of extracts
# Description: 68Ga-labeling was performed as published previously using a 68Ge/68Ga generator (iTHEMBA Labs, South Africa) and a GallElut + synthesis module (SCINTOMICS GmbH, Germany). Usually, 5 nmol of precursor peptide were used, yielding the 68Ga-labeled peptides in specific activities of 100 to 120 […]
# For 177Lu-labeling, the peptides were dissolved in water to yield a 1 mM solution. Of this solution, the required volume was added to 177LuCl3 in 0.04 M HCl (ITG/ITM, Garching, Germany; activity concentration: 370 MBq/500 µl) to achieve a peptide-to -177Lu-activity ratio of 1 nmol peptide per 225 MBq 177LuCl3. To this mixture, 1 M NH4OAc was added (calculated to be 10% of total reaction volume), and the mixture was heated to 90°C for 4 0 min. […]
# Human glioma U87 cells overexpressing CD4 and CXCR4 (U87CD4CXCR4) cells were kept in cultivation at least one week before starting the experiment. […] Perkin-Elmer’s LANCE cAMP assay kit (catalog #AD0262) based on time-resolved fluorescence resonance energy transfer (TR -FRET) was utilized to determine the ability of [natLu]DOTA -r -a -ABA -iodo CPCR4 and [ natLu]PentixaTher vs the reference CXCL12 to inhibit cAMP production induced by 5 µM Forskolin. […]
# (15,000 g), and the supernatants were subjected to ultrafiltration. […] The blood extract was also analyzed by radio-HPLC. For all extracts the ex traction efficiency was determined in a ɣ -counter.
# [5] = Lipophilicity, modified shake-flask method; type: physicochemical; settings: O/PBS, radiolabeled compound, means ± SD (n=6)
# Description: The lipophilicity (log PO/PBS) of the ^68Ga- and ^177Lu-labeled compounds in this study was determined via a modified shake-flask method.
# murine CXCR4 (mCXCR4) = target: T1, murine CXCR4 (mCXCR4) (Mus musculus, UniProt P70658); test: Competition binding to mCXCR4, Eµ-myc 1080 mouse lymphoma cells, [125I]CPCR4.3 as radioligand; settings: Eµ-myc 1080 mouse lymphoma cells 200.000 cells/sample, means ± SD of min. three separate experiments
# T1 construct: mCXCR4-expressing Eµ-Myc1080 mouse B-cell lymphoma cells; endogenous in cells; host or cells: Eµ-Myc1080 mouse B-cell lymphoma cells (whole cells)
# Description: Experiments were performed in triplicate with n=3 per concentration in each experiment. IC50 values were calculated using GraphPad Prism 6.01 (Graph Pad Software, San Diego, USA).
# [6] = 1h p.i., tracer only, i.v., γ-counter, means ± SD, n=4-5 (68Ga: n=4)
# T1 sequence (P70658 whole entry): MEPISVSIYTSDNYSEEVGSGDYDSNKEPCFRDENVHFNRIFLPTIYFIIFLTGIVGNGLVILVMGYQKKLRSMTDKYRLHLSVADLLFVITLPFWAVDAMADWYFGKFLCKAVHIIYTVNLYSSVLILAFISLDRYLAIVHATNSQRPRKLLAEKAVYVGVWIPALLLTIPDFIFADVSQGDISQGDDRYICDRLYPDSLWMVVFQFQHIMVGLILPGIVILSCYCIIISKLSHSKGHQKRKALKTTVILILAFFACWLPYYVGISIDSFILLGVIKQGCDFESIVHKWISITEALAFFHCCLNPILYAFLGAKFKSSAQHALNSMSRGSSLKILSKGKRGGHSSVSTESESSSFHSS
compound,measurement,setting,value
"CN1C(=O)[C@@H](Cc2ccc(O)cc2)NC(=O)CNC(=O)[C@H](Cc2ccc3ccccc3c2)NC(=O)[C@H](CCCNC(=N)N)NC(=O)[C@H]1CCCNC(=O)c1ccc(CNC(=O)CN2CCN(CC(=O)O)CCN(CC(=O)O)CCN(CC(=O)O)CC2)cc1 [[^68Ga]PentixaFor, cyclo(D-Tyr^1-D-[NMe]Orn^2(AMBS-[^68Ga]DOTA)-Arg^3-Nal^4-Gly^5), metal not drawn, reference compound] (cyclo([dY][dNMeOrn]([4Amb-DOTA])R[2Nal]G))",Time at which tumor uptake plateaus (TAC),[1],~20 min p.i.
same,tissue uptake per volume at 1.5 h,"[2]; kidney, read-out: Kidney uptake in PET",2.7 ± 0.1 %ID/mL
same,tissue uptake per volume at 1.5 h,"[2]; liver, average ± SD per volume in ROI, read-out: Liver uptake in PET",1.8 ± 0.1 %ID/mL
same,tissue uptake per volume at 1.5 h,"[2]; tumor (Daudi xenograft), Daudi xenograft, read-out: Tumor accumulation in PET",14.3 ± 1.2 %ID/mL
C[C@@H](NC(=O)[C@@H](CCCNC(=N)N)NC(=O)CN1CCN(CC(=O)O)CCN(CC(=O)O)CCN(CC(=O)O)CC1)C(=O)Nc1ccc(C(=O)NCCC[C@@H]2C(=O)N[C@@H](CCCNC(=N)N)C(=O)N[C@@H](Cc3ccc4ccccc4c3)C(=O)NCC(=O)N[C@H](Cc3ccc(O)cc3)C(=O)N2C)cc1 [[^177Lu]DOTA-r-a-ABA-CPCR4] [metal not drawn] (cyclo([2Nal]G[dY][dNMeOrn]([4Abz-dA-dR-DOTA])R)),Biodistribution adrenals,[3]; [6],1.16 ± 0.18 %iD/g
same,Biodistribution blood,[3]; [6],1.50 ± 0.10 %iD/g
same,Biodistribution colon,[3]; [6],0.78 ± 0.28 %iD/g
same,Biodistribution femur,[3]; [6],0.86 ± 0.04 %iD/g
same,Biodistribution heart,[3]; [6],0.90 ± 0.07 %iD/g
same,Biodistribution kidney,[3]; [6],9.74 ± 0.91 %iD/g
same,Biodistribution liver,[3]; [6],11.9 ± 1.57 %iD/g
same,Biodistribution lung,[3]; [6],3.53 ± 1.20 %iD/g
same,Biodistribution muscle,[3]; [6],0.28 ± 0.02 %iD/g
same,Biodistribution small intestine,[3]; [6],1.23 ± 0.18 %iD/g
same,Biodistribution spleen,[3]; [6],2.41 ± 0.34 %iD/g
same,Biodistribution stomach,[3]; [6],1.72 ± 0.16 %iD/g
same,Biodistribution tumor (Daudi xenograft),[3]; [6],18.3±3.7 %iD/g
same,Initial activity retained in the Daudi xenografts after 48h,[3]; 48h p.i. relative to early time point,~50%
same,"Stable (intact tracer) in blood, urine and liver homogenates",[4],> 99%
same,log PO/PBS,[5],-3.0 ± 0.13
[^natLu]DOTA-r-G-ABA-iodoCPCR4 (head to tail) [natLu-complex of entry 12],IC50,murine CXCR4 (mCXCR4),37 ± 3 nM
[^natLu]DOTA-k-G-ABA-iodoCPCR4 (head to tail) [natLu-complex of entry 10],IC50,murine CXCR4 (mCXCR4),61 ± 17 nM
